# From US5900434A, “Method for inhibiting the production of interleukin-1 or tumor necrosis factor-α by administering acanthoic acid” (Korea Institute of Science and Technology, priority 1994, dated 1999)
# Key:
# [1] = system: H2O2 production in human neutrophils; test: Production of H2O2 in human neutrophils (PMA-stimulated); format: cell-based
# Procedure: Normal human peripheral blood was heparin-treated and diluted with equal amount of Hank's balanced salt solution (HBSS: Ca^2+ and Mg^2+ free). The diluted blood was put into a centrifuge tube containing therein Ficoll-Hypaque(Sigma, St. Louis, Mo., U.S.A.) layer having a density of 1.077 piled up on Ficoll-Hypaque layer having a density of 1.119, and then centrifuged at 700×g for 30 minutes to obtain monocytes from the layer between Ficoll-Hypaque layer having a density of 1.077 and serum layer, and neutrophils from the layer between Ficoll-Hypaque layer having a density of 1.077 and that having a density of 1.119. The separated cells were washed twice with 4° C. HBSS(Ca^2+ and Mg^2+ free) and suspended in RPMI 1640 medium(Gibco, Grand Island, N.Y., U.S.A.) containing 10% fetal bovine serum(FBS, Hyclone, Logan, Utah, U.S.A.). The suspensions were added to the wells of 24-well incubation plate(Costar, Cambridge, Mass., U.S.A.) and incubated at 37° C. for 2 hours to obtain monocytes, macrophages and neutrophils. Inflammatory responses are known as a cascade reaction comprising the secretion of various cytokines, e.g., IL-1, from immune cells stimulated by various stimulants; production of phospholipase A2, lysosomal enzyme, reactive oxygen species, etc. by other immune cells stimulated by said cytokines; and damage of tissues induced by the above products(Pruzanski, W. and […]., Immunol. Today, 12, 143(1991)). The ability of acanthoic acid to block the inflammatory reactions was tested by measuring their inhibitory activity to the production of reactive oxygen species, i.e., H2 O2 and O2^-. The amount of H2 O2 was determined by a microassay employing 96-well microplate as follows. 5×10^5 cells of neutrophils were added to each of the wells containing RPMI 1640 medium, and then 25 μl of horseradish peroxidase (500 μg/ml; type II, Sigma) and 75 μl of phenol red(1 mg/ml) were added to each of the wells. Thereafter, the cells were treated with 10, 20 and 50 μg/ml of acanthoic acid for an hour, stimulated with 10^-7 M phorbol myristate acetate(PMA) and then incubated at 37° C. for 60 minutes. When the incubation was completed, 3M NaOH was added to the wells in an amount of 25 μl/well to stop the reaction and O.D. was measured at 620 nm by using ELISA reader(Dynatech Lab. Inc.) to determine the change of colors with respect to the oxidation of phenol. The amount of H2 O2 was determined by employing a standard curve prepared by diluted H2 O2 (Sigma).
# [2] = system: rat; settings: cited from earlier work
# [3] = system: O2^- production in human monocytes and macrophages; test: Production of O2^- in silica-stimulated human monocytes and macrophages; format: cell-based; settings: 10 μg/ml, 1 hour, 100 μg/ml silica, FIG. 5
# Procedure: Normal human peripheral blood was heparin-treated and diluted with equal amount of Hank's balanced salt solution (HBSS: Ca^2+ and Mg^2+ free). The diluted blood was put into a centrifuge tube containing therein Ficoll-Hypaque(Sigma, St. Louis, Mo., U.S.A.) layer having a density of 1.077 piled up on Ficoll-Hypaque layer having a density of 1.119, and then centrifuged at 700×g for 30 minutes to obtain monocytes from the layer between Ficoll-Hypaque layer having a density of 1.077 and serum layer, and neutrophils from the layer between Ficoll-Hypaque layer having a density of 1.077 and that having a density of 1.119. The separated cells were washed twice with 4° C. HBSS(Ca^2+ and Mg^2+ free) and suspended in RPMI 1640 medium(Gibco, Grand Island, N.Y., U.S.A.) containing 10% fetal bovine serum(FBS, Hyclone, Logan, Utah, U.S.A.). The suspensions were added to the wells of 24-well incubation plate(Costar, Cambridge, Mass., U.S.A.) and incubated at 37° C. for 2 hours to obtain monocytes, macrophages and neutrophils. […] The change of color of the supernatant caused by the reduction of cytochrome C was measured at 550 nm by using a UV-Visible spectrophotometer (Kontron Instrument, Milano, Italy). […]
smiles,measurement,setting,value
"C=C[C@@]1(C)CC=C2C(CCC3[C@](C)(C(=O)O)CCC[C@@]23C)C1 (single isomer, unassigned; (-)) [acanthoic acid, (-)-pimara-9(11),15-diene-19-oic acid]",activity at 10 µg/mL,"[1]; Neutrophil, 1 h, PMA + acanthoic acid 10 μg/ml, PMA = 100, read-out: Amount of produced reactive oxygen species, H2O2 (% to the control group)",70%
same,activity at 20 µg/mL,"[1]; Neutrophil, 1 h, PMA + acanthoic acid 20 μg/ml, PMA = 100, read-out: Amount of produced reactive oxygen species, H2O2 (% to the control group)",37.4%
same,activity at 50 µg/mL,"[1]; Neutrophil, 1 h, PMA + acanthoic acid 50 μg/ml, PMA = 100, read-out: Amount of produced reactive oxygen species, H2O2 (% to the control group)",15.8%
same,"Amount of produced reactive oxygen species, H2O2",[1]; PMA + acanthoic acid 10 μg/ml,72.6 nM/60 min.
same,"Amount of produced reactive oxygen species, H2O2",[1]; PMA + acanthoic acid 20 μg/ml,38.7 nM/60 min.
same,"Amount of produced reactive oxygen species, H2O2",[1]; PMA + acanthoic acid 50 μg/ml,16.4 nM/60 min.
same,minimum lethal dose(MLD),[2],1000 mg/kg
same,amount of O2^-,[3],decrease significantly
